According to patent US8685726B2, “Small molecules supporting pluripotent cell growth and methods thereof” (Viacyte, Inc., priority 2009, dated 2014):
Entries after “also recorded” stand apart in the source; their conditions may differ.

Legend:
Assay type in all cases: cell-based, human
[1] = test system: hES cells (e.g., BGO2 cells); experiment: Low-density colony forming / colony counting assay (AP+ colonies); details: 10^4 cells/well, StemPro hESC SFM, 7 days; for support of colony formation at low density: compounds at 10 or 50 μM
Procedure: FIG. 2. Low density plating assay of hES cells (e.g., BGO2 cells). 10000 cells/well were plated in 6-well trays in StemPro® hESC SFM (Life Technologies) medium and stained with alkaline phosphatase (AP+) after 7 days. Y (Y27632), ACh (acetylcholine), NMDA (N-methyl-D-aspartic acid), NE ((−)-Norepinephrine), NE.Bit ((±)-Norepinephrine (+)-bitartrate). Compounds were added at 10 or 50 μM as indicated.
FIG. 3. Low density plating assay of hES cells. (A) 200-10000 cells/well were plated in […] trays in StemPro® hESC SFM medium, or StemPro® hESC SFM +50 μM NE, or +50 μM ACh, and stained with alkaline phosphatase (AP+) after 8 days. […] ACh (acetylcholine), NE ((±)-Norepinephrine (+)-bitartrate). […]
About 10^4 hES cells/well were plated in 6-well trays in StemPro® hESC SFM, in the presence of different compounds and cultured for about 7 days. The cultures were then fixed, stained for alkaline phosphatase activity and colonies were counted (FIG. 2). […] The (±)-Norepinephrine (+)-bitartrate salt was used for all subsequent experiments involving norepinephrine (NE) unless specifically described otherwise.
A similar colony counting experiment was performed using a range of cell densities (FIG. 3). […] See Robins and Schulz 2009, supra. […]

[2] = test system: hES cells; experiment: Low-density real-time cell index monitoring (RT-CES impedance reader); details: for survival/proliferation compared to DMSO controls: StemPro hESC SFM HIA, low-density impedance assay; for survival and expansion at low density, single factors and two-factor combinations: 50 μM (NE, ACh, Adenosine, GABA) or 10 μM (Y27632), 5 days
Procedure: FIG. 4. Titration of NE and ACh using the RT-CES impedance reader. 1000 hES cells/well were plated in StemPro® hESC SFM containing the indicated concentrations of small molecules (in μM). In such an assay, the timing of when the cell index rises is associated with the proportion of cells that survive and expand at low density.
FIG. 5. Combined effects of small molecules compound combinations in low cell density assays. (A) 1000 hES cells/well were plated in StemPro® hESC SFM containing small molecules at 50 μM (NE, ACh, Adenosine, GABA) or 10 μM (Y27632). The assay was carried out over 5 days using the RT-CES system.
FIG. 6. […] 1000 hES cells/well were plated in StemPro® hESC SFM containing Heregulin, IGF1 and Activin (HIA) and the indicated small molecules. […] Compounds were tested at 10 μM. The DMSO trace is an average of 8 wells. […] Compounds were tested at the indicated concentrations.
FIG. 7. […] 1000 hES cells/well were plated in StemPro® hESC SFM containing the indicated combinations of growth factors and small molecules. Heregulin (H), LR3-IGF1 (I), Activin (A).
FIG. 9. Low-density RT-CES assays of combinations of growth factors and neurotransmitters. 1000 hES cells/well were plated in StemPro® hESC SFM containing the indicated combinations of growth factors and small molecules. Heregulin (H), LR3-IGF1 (I), Activin (A). Small molecules were tested at 50 μM.
Furthermore, pluripotent cells can also be grown in 96-well culture devices that provide real-time measurements of impedance, which can be used to measure cell proliferation and viability using the RT-CES™ methods from ACEA Biosciences, Inc. (www (dot) aceabio (dot) com). Such an approach would enable a label-free identification and quantification of subtle or immediate effects on differentiable cells, as well as measurements of proliferation, apoptosis and changes to morphology, in real time.
To examine more closely the potency of individual neurotransmitters and determine if synergies exist between different factors, low-density assays were performed in real time using an impedance reader. The ACEA biosciences RT-CES system uses 96-well trays that contain embedded microsensors to monitor changes in electrical impedance, which is translated into a measure of cell index. Any overt alteration within a cell culture can be detected, including but not limited to cell proliferation, migration, cell spreading, apoptosis, differentiation and the like. […] Once an undifferentiated culture becomes confluent the cell index remains high, but tends to go down and up (scallop) between daily feedings. Conversely, differentiation is typically indicated by the appearance of distinctive patterns, such as peaks and troughs in the cell index, likely indicative of an epithelial-to-mesenchymal transition, flattening, cell migration, apoptosis or similar differentiation and growth related changes.
Human ES cells were plated at low density, 1000 cells/well, in RT-CES trays and cultured for 10 days (FIG. 4). Cells were plated directly in StemPro® hESC SFM containing carrier control (DMSO), NE, or ACh.

[3] = test system: CyT49 cells; experiment: Suspension aggregate culture, cell counts and aggregate diameters
Procedure: FIG. 10. Effects of NE and ACh in suspension culture of hES cell. (A) 5×10^6 CyT49 cells were seeded in 5 ml StemPro® hESC SFM containing heregulin, LR3-IGF1, Activin and the indicated neurotransmitters at 50 μM in low-attachment 6-well trays and placed at 100 rpm. Undifferentiated suspension aggregates were imaged on day 4. (B) 24 hours after seeding, two wells from each condition were harvested and counted to determine the number of viable cells. (C) Cell counts of each condition when the cultures were split on day 4. (D) The images in (A) were used to determine aggregate diameters using the ImagePro software measurement tool. Average diameters and standard deviations from 50-100 aggregates from each condition are shown. (E) Passage 1 cell counting data. 5×10^6 CyT49 hES cells from p0 cells in (A) were seeded into the same conditions. The aggregates in the condition containing Y27632 were larger and had to be passaged 3 days after seeding, before the centers of the largest aggregates became necrotic. Conversely, the other conditions could be cultured for 6 days before passaging, resulting in higher cell counts.
FIG. 11. Suspension hES cell cultured with NE, […] remain undifferentiated. CyT49 cells were grown as suspension aggregates in the presence of NE, […] for 16 passages without differentiating morphologically. After p10, some cells were re-plated to adherent culture and examined by karyotyping and immunofluorescent staining for OCT4 and Tra-1-61. All cultures remained undifferentiated and expressed these pluripotency markers uniformly. (SP) StemPro® SFM HIA, NE (+NE at 50 μM), ACh (+ACh at 50 μM), NE/ACh (+NE/ACh at 50 μM). Karyotype data is shown to the right. […] Cultures containing ACh were aneuploid.
Small molecule ligands that support survival or self-renewal at low cell densities could also be expected to have beneficial effects in other culture formats. Applicants have previously developed a suspension culture system for hES cells that enables serial propagation of cells and effective expansion of cultures. Human ES cells, at least BG02 and CyT49 cells, have been maintained in suspension for greater than 10 passages without differentiation. The basis of the technique is to dissociate cultures to single cells with reagents that preserve high viability, such as Accutase™, TrypLE or cell dispersal buffer, then aggregate defined concentrations of cells in defined medium in rotational culture. These methods are described in more detail in International Application PCT/US2008/082356, entitled STEM CELL AGGREGATE SUSPENSION COMPOSITIONS AND METHODS OF DIFFERENTIATION THEREOF, filed Nov. 4, 2008; and International Application PCT/US2007/062755, entitled COMPOSITIONS AND METHODS FOR CULTURING DI[…], filed Feb. 23, 2007, which are herein incorporated by reference in their entireties. Self-aggregation of hES cells occurs in the absence of added extracellular matrix (ECM) or ECM-like proteins and is presumed to be driven in part by homotypic interaction of E-cadherin. The aggregates that are formed expand over 3-4 days and are kept apart from each other by the shear forces generated by rotational culture. Cells are blocked from differentiating by the self-renewal signaling provided by the defined medium and retain their pluripotent characteristics: marker expression, normal karyotype, and differentiation potential in vitro and in teratomas. […]

Row | Molecule | support of colony formation at low density [1] | survival/proliferation compared to DMSO controls ([2]; 1000 cells/well) | also measured
1 | (−)-Norepinephrine | supported elevated colony formation | – | –
2 | NCCc1c[nH]cn1 [histamine] | failed to support enhanced colony formation | lack of robust activity | –
3 | Nc1ncnc2c1ncn2[C@@H]1O[C@H](CO)[C@@H](O)[C@H]1O [adenosine] | supported elevated colony formation | – | survival and expansion at low density, single factors and two-factor combinations ([2]; 1000 cells/well): less effective; time after plating at which cell index rises above background / expansion detectable ([2]; 50 μM each factor, 1000 cells/well, StemPro hESC SFM): ~4.5 days
4 | C[C@@H](N)[C@H]1CC[C@H](C(=O)Nc2ccncc2)CC1 [Y27632] | did not support colony survival/expansion | – | AP+ colonies counted ([1]; 6-well trays): 0 colonies; survival and expansion at low density, single factors and two-factor combinations ([2]; 1000 cells/well): did not survive or proliferate; also recorded: reduced the effects of NE, ACh, Adenosine and GABA; cells generated at passage 1 ([3]; passaged after 3 days): about 1.2×10^7 cells; aggregate size on day 4 ([3]; suspension, StemPro hESC SFM HIA, neurotransmitters 50 μM): fewer numbers of larger aggregates
5 | CN1CCCC1c1cccnc1 (stereo not shown) [nicotine] | failed to support enhanced colony formation | – | –
6 | NCCc1c[nH]c2ccc(O)cc12 [serotonin] | – | enhanced survival/proliferation | –
7 | CN[C@H](CC(=O)O)C(=O)O [NMDA, N-methyl-D-aspartic acid] | failed to support enhanced colony formation | lack of robust activity | –
8 | Activin: recombinant Activin A growth factor of the defined medium (protein, UniProt P08476 311-426, looked up, Inhibin beta A chain) Inhibin beta A chain: GLECDGKVNICCKKQFFVSFKDIGWNDWIIAPSGYHANYCEGECPSHIAGTSGSSLSFHSTVINHYRMRGHSPFANLKSCCVPTKLRPMSMLYYDDGQNIIKKDIQNMIVEECGCS | – | – | role in plating, survival and/or expansion at low cell density ([2]; low cell density): major negative role
